In ChEMBL document CHEMBL3286240, “Inhibition of Enterococcus faecalis biofilm formation by highly active lactones and lactams analogues of rubrolides” (Eur J Med Chem, 2014):
Converted amounts (≈) assume the structure as drawn.

tested on: Enterococcus faecalis; assay: Antimicrobial activity against Enterococcus faecalis assessed as bacterial growth at 87.5 ug/ml after 20 hrs by microtiter plate assay; assay type: functional

SMILES | Activity
COc1ccc(C)cc1C1=C(Br)C(=O)N(CC(C)C)C1(O)Cc1ccccc1Cl (stereo unspecified) | 86.4%
COc1ccc(Cl)cc1C1=C(Br)C(=O)N(CC(C)C)C1(O)Cc1ccccc1Br (stereo unspecified) | 78%
COc1cccc(CC2(O)C(c3cc(Cl)ccc3OC)=C(Br)C(=O)N2CC(C)C)c1 (stereo unspecified) | 60.6%
COc1ccccc1C1=C(Br)C(=O)N(CC(C)C)/C1=C\c1ccc(C(F)(F)F)cc1 | 45%
COc1ccc(Br)cc1C1=C(Br)C(=O)N(CC(C)C)/C1=C\c1cccc(Cl)c1 | 94.2%
COc1ccc(Br)cc1C1=C(Br)C(=O)N(CC(C)C)/C1=C\c1ccc(Br)cc1 | 82.8%

tested on: Enterococcus faecalis; assay: Antimicrobial activity against Enterococcus faecalis assessed as bacterial growth at 43.8 ug/ml after 20 hrs by microtiter plate assay; assay type: functional

SMILES | Activity
COc1ccc(C)cc1C1=C(Br)C(=O)N(CC(C)C)C1(O)Cc1ccccc1Cl (stereo unspecified) | 63.4%
COc1ccc(Cl)cc1C1=C(Br)C(=O)N(CC(C)C)C1(O)Cc1ccccc1Br (stereo unspecified) | 53.9%
COc1cccc(CC2(O)C(c3cc(Cl)ccc3OC)=C(Br)C(=O)N2CC(C)C)c1 (stereo unspecified) | 38.2%
COc1ccccc1C1=C(Br)C(=O)N(CC(C)C)/C1=C\c1ccc(C(F)(F)F)cc1 | 11.2%
COc1ccc(Br)cc1C1=C(Br)C(=O)N(CC(C)C)/C1=C\c1cccc(Cl)c1 | 26.3%
COc1ccc(Br)cc1C1=C(Br)C(=O)N(CC(C)C)/C1=C\c1ccc(Br)cc1 | 59.7%

tested on: Enterococcus faecalis; assay: Antimicrobial activity against Enterococcus faecalis assessed as bacterial growth at 21.9 ug/ml after 20 hrs by microtiter plate assay; assay type: functional

SMILES | Activity
COc1ccc(C)cc1C1=C(Br)C(=O)N(CC(C)C)C1(O)Cc1ccccc1Cl (stereo unspecified) | 46%
COc1ccc(Cl)cc1C1=C(Br)C(=O)N(CC(C)C)C1(O)Cc1ccccc1Br (stereo unspecified) | 38.4%
COc1cccc(CC2(O)C(c3cc(Cl)ccc3OC)=C(Br)C(=O)N2CC(C)C)c1 (stereo unspecified) | 21.6%
COc1ccccc1C1=C(Br)C(=O)N(CC(C)C)/C1=C\c1ccc(C(F)(F)F)cc1 | 4%
COc1ccc(Br)cc1C1=C(Br)C(=O)N(CC(C)C)/C1=C\c1cccc(Cl)c1 | 20.4%
COc1ccc(Br)cc1C1=C(Br)C(=O)N(CC(C)C)/C1=C\c1ccc(Br)cc1 | 58.1%

tested on: Enterococcus faecalis; assay: Antimicrobial activity against Enterococcus faecalis assessed as bacterial growth at 10.9 ug/ml after 20 hrs by microtiter plate assay; assay type: functional

SMILES | Activity
COc1ccc(C)cc1C1=C(Br)C(=O)N(CC(C)C)C1(O)Cc1ccccc1Cl (stereo unspecified) | 43.8%
COc1ccc(Cl)cc1C1=C(Br)C(=O)N(CC(C)C)C1(O)Cc1ccccc1Br (stereo unspecified) | 36.7%
COc1cccc(CC2(O)C(c3cc(Cl)ccc3OC)=C(Br)C(=O)N2CC(C)C)c1 (stereo unspecified) | 19.8%
COc1ccccc1C1=C(Br)C(=O)N(CC(C)C)/C1=C\c1ccc(C(F)(F)F)cc1 | -4.2%
COc1ccc(Br)cc1C1=C(Br)C(=O)N(CC(C)C)/C1=C\c1cccc(Cl)c1 | 20%
COc1ccc(Br)cc1C1=C(Br)C(=O)N(CC(C)C)/C1=C\c1ccc(Br)cc1 | 55.9%

tested on: Enterococcus faecalis; assay: Antimicrobial activity against Enterococcus faecalis assessed as bacterial growth at 5.5 ug/ml after 20 hrs by microtiter plate assay; assay type: functional

SMILES | Activity
COc1ccc(C)cc1C1=C(Br)C(=O)N(CC(C)C)C1(O)Cc1ccccc1Cl (stereo unspecified) | 41.6%
COc1ccc(Cl)cc1C1=C(Br)C(=O)N(CC(C)C)C1(O)Cc1ccccc1Br (stereo unspecified) | 32.4%
COc1cccc(CC2(O)C(c3cc(Cl)ccc3OC)=C(Br)C(=O)N2CC(C)C)c1 (stereo unspecified) | -8%
COc1ccccc1C1=C(Br)C(=O)N(CC(C)C)/C1=C\c1ccc(C(F)(F)F)cc1 | -8%
COc1ccc(Br)cc1C1=C(Br)C(=O)N(CC(C)C)/C1=C\c1cccc(Cl)c1 | 21.8%
COc1ccc(Br)cc1C1=C(Br)C(=O)N(CC(C)C)/C1=C\c1ccc(Br)cc1 | 43%

tested on: Enterococcus faecalis; assay: Antimicrobial activity against Enterococcus faecalis assessed as bacterial growth at 2.73 ug/ml after 20 hrs by microtiter plate assay; assay type: functional

SMILES | Activity
COc1ccc(C)cc1C1=C(Br)C(=O)N(CC(C)C)C1(O)Cc1ccccc1Cl (stereo unspecified) | 35.4%
COc1ccc(Cl)cc1C1=C(Br)C(=O)N(CC(C)C)C1(O)Cc1ccccc1Br (stereo unspecified) | 30.2%
COc1cccc(CC2(O)C(c3cc(Cl)ccc3OC)=C(Br)C(=O)N2CC(C)C)c1 (stereo unspecified) | 9.5%
COc1ccccc1C1=C(Br)C(=O)N(CC(C)C)/C1=C\c1ccc(C(F)(F)F)cc1 | -6.6%
COc1ccc(Br)cc1C1=C(Br)C(=O)N(CC(C)C)/C1=C\c1cccc(Cl)c1 | 27%
COc1ccc(Br)cc1C1=C(Br)C(=O)N(CC(C)C)/C1=C\c1ccc(Br)cc1 | 33.9%

tested on: Enterococcus faecalis; assay: Antimicrobial activity against Enterococcus faecalis assessed as bacterial growth at 1.37 ug/ml after 20 hrs by microtiter plate assay; assay type: functional

SMILES | Activity
COc1ccc(C)cc1C1=C(Br)C(=O)N(CC(C)C)C1(O)Cc1ccccc1Cl (stereo unspecified) | 19.1%
COc1ccc(Cl)cc1C1=C(Br)C(=O)N(CC(C)C)C1(O)Cc1ccccc1Br (stereo unspecified) | 19.3%
COc1cccc(CC2(O)C(c3cc(Cl)ccc3OC)=C(Br)C(=O)N2CC(C)C)c1 (stereo unspecified) | 3%
COc1ccccc1C1=C(Br)C(=O)N(CC(C)C)/C1=C\c1ccc(C(F)(F)F)cc1 | -5.2%
COc1ccc(Br)cc1C1=C(Br)C(=O)N(CC(C)C)/C1=C\c1cccc(Cl)c1 | 25.1%
COc1ccc(Br)cc1C1=C(Br)C(=O)N(CC(C)C)/C1=C\c1ccc(Br)cc1 | 17.5%

tested on: Enterococcus faecalis; assay: Antimicrobial activity against Enterococcus faecalis assessed as bacterial growth at 0.68 ug/ml after 20 hrs by microtiter plate assay; assay type: functional

SMILES | Activity
COc1ccc(C)cc1C1=C(Br)C(=O)N(CC(C)C)C1(O)Cc1ccccc1Cl (stereo unspecified) | -12.4%
COc1ccc(Cl)cc1C1=C(Br)C(=O)N(CC(C)C)C1(O)Cc1ccccc1Br (stereo unspecified) | -10.6%
COc1cccc(CC2(O)C(c3cc(Cl)ccc3OC)=C(Br)C(=O)N2CC(C)C)c1 (stereo unspecified) | 4%
COc1ccccc1C1=C(Br)C(=O)N(CC(C)C)/C1=C\c1ccc(C(F)(F)F)cc1 | -10.2%
COc1ccc(Br)cc1C1=C(Br)C(=O)N(CC(C)C)/C1=C\c1cccc(Cl)c1 | 17.9%
COc1ccc(Br)cc1C1=C(Br)C(=O)N(CC(C)C)/C1=C\c1ccc(Br)cc1 | -1.3%

tested on: Enterococcus faecalis; assay: Antimicrobial activity against Enterococcus faecalis assessed as bacterial growth at 0.34 ug/ml after 20 hrs by microtiter plate assay; assay type: functional

SMILES | Activity
COc1ccc(C)cc1C1=C(Br)C(=O)N(CC(C)C)C1(O)Cc1ccccc1Cl (stereo unspecified) | -15.6%
COc1ccc(Cl)cc1C1=C(Br)C(=O)N(CC(C)C)C1(O)Cc1ccccc1Br (stereo unspecified) | -1.9%
COc1cccc(CC2(O)C(c3cc(Cl)ccc3OC)=C(Br)C(=O)N2CC(C)C)c1 (stereo unspecified) | 1%
COc1ccccc1C1=C(Br)C(=O)N(CC(C)C)/C1=C\c1ccc(C(F)(F)F)cc1 | -10.4%
COc1ccc(Br)cc1C1=C(Br)C(=O)N(CC(C)C)/C1=C\c1cccc(Cl)c1 | 12.1%
COc1ccc(Br)cc1C1=C(Br)C(=O)N(CC(C)C)/C1=C\c1ccc(Br)cc1 | 0.3%

tested on: Enterococcus faecalis; assay: Antimicrobial activity against Enterococcus faecalis assessed as bacterial growth at 0.17 ug/ml after 20 hrs by microtiter plate assay; assay type: functional

SMILES | Activity
COc1ccc(C)cc1C1=C(Br)C(=O)N(CC(C)C)C1(O)Cc1ccccc1Cl (stereo unspecified) | -3.7%
COc1ccc(Cl)cc1C1=C(Br)C(=O)N(CC(C)C)C1(O)Cc1ccccc1Br (stereo unspecified) | -5.1%
COc1cccc(CC2(O)C(c3cc(Cl)ccc3OC)=C(Br)C(=O)N2CC(C)C)c1 (stereo unspecified) | -4%
COc1ccccc1C1=C(Br)C(=O)N(CC(C)C)/C1=C\c1ccc(C(F)(F)F)cc1 | -2.4%
COc1ccc(Br)cc1C1=C(Br)C(=O)N(CC(C)C)/C1=C\c1cccc(Cl)c1 | 9.3%
COc1ccc(Br)cc1C1=C(Br)C(=O)N(CC(C)C)/C1=C\c1ccc(Br)cc1 | -2.2%

tested on: Enterococcus faecalis; assay: Antimicrobial activity against Enterococcus faecalis assessed as inhibition of biofilm formation after 20 hrs by crystal violet staining analysis; assay type: functional, organism-based

SMILES | IC50
COc1ccc(Cl)cc1C1=C(Br)C(=O)N(CC(C)C)C1(O)Cc1ccccc1Br (stereo unspecified) | 1.29 µg/mL (≈ 2.37 µM)
COc1ccccc1C1=C(Br)C(=O)N(CC(C)C)/C1=C\c1ccc(C(F)(F)F)cc1 | 12 µg/mL (≈ 25 µM)
COc1ccc(Br)cc1C1=C(Br)C(=O)N(CC(C)C)/C1=C\c1cccc(Cl)c1 | 3.31 µg/mL (≈ 6.3 µM)

Second part, the molecule after the results:

IC50 | SMILES
1.07 µg/mL (≈ 2.23 µM) | COc1ccc(C)cc1C1=C(Br)C(=O)N(CC(C)C)C1(O)Cc1ccccc1Cl (stereo unspecified)
> 87.5 µg/mL | COc1cccc(CC2(O)C(c3cc(Cl)ccc3OC)=C(Br)C(=O)N2CC(C)C)c1 (stereo unspecified)
6.62 µg/mL (≈ 11.6 µM) | COc1ccc(Br)cc1C1=C(Br)C(=O)N(CC(C)C)/C1=C\c1ccc(Br)cc1
